Data on 1 compound can be found in patent US6066635A, “Avrainvillamide, a cytotoxic marine natural product, and derivatives thereof” (University of California, San Diego, priority 1999, dated 2000).

Holding throughout (type): cell-based
One series has as its system melanoma MALME-3M cells. The experiment in a line: in vitro cytotoxicity at the National Cancer Institute (NCI 60 cell panel), melanoma. The conditions noted are these: Homo sapiens, inhibition of cell proliferation by 50%. The text has this:
(§1) Thus, the invention provides a method of treating a cancer patient by administering to the patient a compound of the invention in an amount sufficient to reduce or inhibit proliferation of cancer cells in the patient.

Series [1] relates to breast cancer cells T-47D. The experiment in a line: in vitro cytotoxicity at the National Cancer Institute (NCI 60 cell panel), breast cancer T-47D. To be noted: Homo sapiens, T47D; breast cancer T-47D (printed T-470); inhibition of cell proliferation by 50%.
Text: as §1

A further series relates to human colon HCT116 cells. In words: HCT-116 cytotoxicity assay. The conditions noted are these: human colon HCT-116 cells; concentration required to inhibit cell proliferation by 50% vs untreated cells.
Text: as §1

Series [2] deals with breast cancer cells βT-549. In words: in vitro cytotoxicity at the National Cancer Institute (NCI 60 cell panel), breast cancer βT-549. To be noted: inhibition of cell proliferation by 50%.
Text: as §1

The subject of series [3] is tumor cell lines in the NCI 60 cell panel. In words: cytotoxic effect in the NCI 60 cell panel.
Text: as §1

≈ marks a conversion by molar mass, not a printed value.

As usually defined, the IC50 is the midpoint of a concentration-inhibition curve. The low end stands for greater potency, the high end for weaker potency. For the compound `CC1(C)C=Cc2c(ccc3c2[N+]([O-])=C2C3=CC34NC(=O)C5(CCCN5C3=O)CC4C2(C)C)O1` (stereo not drawn) [Avrainvillamide], the IC50 in the series on melanoma MALME-3M cells came to 53 nM; in series [1], 72 nM; in the series on human colon HCT116 cells, 2 µg/mL (≈ 4.49 µM); in series [2], 34 nM. In series [3] (MALME-3M, βT-549 and T-470), the “selective in vitro cytotoxicity towards melanoma and breast cancers” value is on record as “significant selective in vitro cytotoxicity”. In addition, the “cytotoxic effect against a variety of tumor cell lines” value in series [3] (NCI 60 cell panel) is on record as “dose dependent cytotoxic effect”.
